Test results from PMC2949846 (Virology Journal, 2010).
No end group written: not given here.

Assay: physchem
Conditions: water

Which solubility does the source give for EAKSSIAKHFSLWKSYADADIKNSENK [A] here?
The solubility was 2000 µg/mL.

Which solubility does the source give for FHNSNSRILFNQENNNFMYS [B] here?
The solubility was 2000 µg/mL.
